Patent US9149038B2, “4-amino-6-(heterocyclic)picolinates and 6-amino-2-(heterocyclic)pyrimidine-4-carboxylates and their use as herbicides” (Dow AgroSciences LLC, priority 2013, dated 2015)
Where two headings read alike, the source gives them in different places.

How the values were obtained:
[1] = system: Key Broadleaf Weed and Crop Species; assay: Post-Emergent Test II: postemergent herbicidal activity, visual rating after 14 d (Table 7); format: in vivo; conditions: post-emergence, 336 h; for pest or weed control at 35 g/ha: 35 g ai/ha; for pest or weed control at 70 g/ha: 70 g ai/ha; for pest or weed control at 140 g/ha: 140 g ai/ha
Outline: (§1)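 Plants were raised in a greenhouse for 7-21 d and treated once at the first or second true leaf stage. Compounds, dissolved in 97:3 acetone:DMSO then diluted into an aqueous acetone/isopropanol/crop oil/Triton X-155 carrier, were applied by overhead track sprayer at 187 L/ha. After 14 d with subirrigation, injury was scored visually from 0 (none) to 100 (complete kill).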

[2] = system: Key Grass and Sedge Weeds as well as Grass Crops; assay: Post-Emergent Test II: postemergent herbicidal activity, visual rating after 14 d (Table 8); format: in vivo; conditions: post-emergence, 336 h; for pest or weed control at 35 g/ha: 35 g ai/ha; for pest or weed control at 70 g/ha: 70 g ai/ha; for pest or weed control at 140 g/ha: 140 g ai/ha
Outline: as §1

[3] = ABUTH: velvetleaf (Abutilon theophrasti), read-out: Visual Growth Reduction (%) 14 Days After Application ABUTH
[4] = AMARE: redroot pigweed (Amaranthus retroflexus), read-out: Visual Growth Reduction (%) 14 Days After Application AMARE
[5] = BRSNN: oilseed rape, canola (Brassica napus), read-out: Visual Growth Reduction (%) 14 Days After Application BRSNN
[6] = CHEAL: lambsquarters (Chenopodium album), read-out: Visual Growth Reduction (%) 14 Days After Application CHEAL
[7] = EPHHL: wild poinsettia (Euphorbia heterophylla), read-out: Visual Growth Reduction (%) 14 Days After Application EPHHL
[8] = HELAN: sunflower (Helianthus annuus), read-out: Visual Growth Reduction (%) 14 Days After Application HELAN
[9] = barnyardgrass (Echinochloa crus-galli), read-out: Visual Growth Reduction (%) 14 Days After Application, ECHCG
[10] = giant foxtail (Setaria faberi), read-out: Visual Growth Reduction (%) 14 Days After Application, SETFA
[11] = maize, corn (Zea mays), read-out: Visual Growth Reduction (%) 14 Days After Application, ZEAMX
[12] = rice (Oryza sativa), read-out: Visual Growth Reduction (%) 14 Days After Application, ORYSA
[13] = wheat, spring (Triticum aestivum), read-out: Visual Growth Reduction (%) 14 Days After Application, TRZAS
[14] = yellow nutsedge (Cyperus esculentus), read-out: Visual Growth Reduction (%) 14 Days After Application, CYPES

## COc1c(N)nc(-c2ccc(Cl)c3c2OC(F)(F)O3)nc1C(=O)O [Compound 96]
[1]; [3]
  pest or weed control at 35 g/ha: 75 to 84%
  pest or weed control at 70 g/ha: 60 to 74%
  pest or weed control at 140 g/ha: 85 to 94%
[1]; [4]
  pest or weed control at 35 g/ha: 95 to 100%
  pest or weed control at 70 g/ha: 95 to 100%
  pest or weed control at 140 g/ha: 95 to 100%
[1]; [5]
  pest or weed control at 35 g/ha: 0 to 29%
  pest or weed control at 70 g/ha: 75 to 84%
  pest or weed control at 140 g/ha: 85 to 94%
[1]; [6]
  pest or weed control at 35 g/ha: 95 to 100%
  pest or weed control at 70 g/ha: 95 to 100%
  pest or weed control at 140 g/ha: 95 to 100%
[1]; [7]
  pest or weed control at 35 g/ha: 0 to 29%
  pest or weed control at 70 g/ha: 0 to 29%
  pest or weed control at 140 g/ha: 0 to 29%
[1]; [8]
  pest or weed control at 35 g/ha: 95 to 100%
  pest or weed control at 70 g/ha: 95 to 100%
  pest or weed control at 140 g/ha: 95 to 100%
[2]; [9]
  pest or weed control at 35 g/ha: 0 to 29%
  pest or weed control at 70 g/ha: 0 to 29%
  pest or weed control at 140 g/ha: 0 to 29%
[2]; [10]
  pest or weed control at 35 g/ha: 0 to 29%
  pest or weed control at 70 g/ha: 0 to 29%
  pest or weed control at 140 g/ha: 0 to 29%
[2]; [11]
  pest or weed control at 35 g/ha: 30 to 44%
  pest or weed control at 70 g/ha: 60 to 74%
  pest or weed control at 140 g/ha: 60 to 74%
[2]; [12]
  pest or weed control at 35 g/ha: 0 to 29%
  pest or weed control at 70 g/ha: 0 to 29%
  pest or weed control at 140 g/ha: 0 to 29%
[2]; [13]
  pest or weed control at 35 g/ha: 0 to 29%
  pest or weed control at 70 g/ha: 30 to 44%
  pest or weed control at 140 g/ha: 45 to 59%
[2]; [14]
  pest or weed control at 35 g/ha: 0 to 29%
  pest or weed control at 70 g/ha: 0 to 29%
  pest or weed control at 140 g/ha: 0 to 29%
